The text below walks through data of US20050256132A1, “Use of ER selective NF-kB inhibitors for the treatment of sepsis” (priority 2003, published 2005).

Series [1] has as its system ER/IL-6. The series can be described thus: Endothelial Cell ER/IL-6 Assay, IL-6 promoter luciferase (Table 2). The format is cell-based, human. Conditions: ERα infected HAECT-1 cells, IL-1β; for Emax: read-out: IL6 luc % Efficacy; for IC50: read-out: IL6 luc IC50. The method in brief: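 One lysate gave both read-outs: luciferase for ER/IL-6 and A340 rate after CK reagent for CK, with four-parameter logistic IC50/EC50. Cells were HAECT-1 aortic endothelial cells carrying adenoviral human ERα (or none), dosed […] at 34 °C from 2× stocks containing 2 ng/ml IL-1β and IL-6(1250 bp)-Luc adenovirus.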

For series [2], the system named is CK. The series is described as follows: Creatine kinase assay in ERα infected HAECT-1 cells (Table 2). The format is cell-based, human. Conditions: for Emax: HAECT1, read-out: CK % Efficacy. On the procedure:
T-175 flasks of 100% confluent HAECT-1 cells (immortalized human aortic endothelial cells) were washed with 8 ml of HBSS (HEPES buffered saline solution) and infected for fours hours with 6 ml of a 1:10 dilution of Ad5-wt-hERα virus (an adenovirus transfection vector that mediates CMV promoter driven expression of human ERα) in phenol red free Endothelial Cell Basal medium (Clonetics, San Diego, Calif., Catalog # CC-3129) containing 0.25% bovine serum albumin (EDM-BSA). After four hours, cells were washed with EDM-BSA and incubated overnight in the same medium. Following overnight incubation, cells were washed with EDM-BSA and infected for 2 hours with 6 ml of a 1:10 dilution of Ad5-3x(NFκB).Luc virus (Adenovirus luciferase expression vector driven by three repeats of the MHC NFκb sites 5′ to the thymidine kinase promoter) in EDM-BSA. After two hours, cells were washed and incubated at 34° C. for one hour. Cells were then washed, trypsinized, counted, and resuspended in 95% FBS/5% dimethylsulfoxide at a concentration of […], frozen as 1 or 5 ml aliquots in cryo-vials and stored at −150° C. Control (no ER infection) cells were processed as above without Ad5-wt-hERα virus infection.
ERα infected HAECT-1 cells or control cells were thawed, diluted 42× in warm EBM-BSA, plated into 96-well plates at 0.1 ml/well and incubated for 4 hours at 34° C. Test compounds were added to the cells at 2× stocks in EBM-BSA containing 2 ng/ml IL-1β Ad6-IL-6(1250 bp).Luc virus and plates were returned to the incubator (34° C.). After […], cells were lysed with 50 μl of Promega Cell Culture Lysis reagenet for about 5 minutes at room temperature on a shaker. After lysing, 15 μl of lysate is transferred to luminometer plates for luciferase determination. Luciferase activity is evaluated using a Perkin Elmer Victor2 1420 multilabel counter. Creatine kinase was determined from the rate of increase in A340 following addition of 100 μl of CK assay reagent (Sigma catalog no. 47-10) to the remainder of the cell lysate.
For IC50 and EC50 calculations, mean IL-6, luciferase or CK values versus log10 of the compound concentration were fitted to a four parameter logistic equation. The IC50/EC50 value, ‘Hill slope,’ upper and lower limits of the curve were iteratively estimated.

Like-named read-outs stand apart in the source and are kept apart here.

`COC[C@](C#N)(C(=O)OC)[C@H](c1ccccc1OC)c1cccc2ccccc12` (relative stereo) [Example 141, Methyl (2S*,3S*)-2-cyano-2-(methoxymethyl)-3-(2-methoxyphenyl)-3-(1-naphthyl)propanoate] registered a melting point of 148.3 to 151 °C. The Emax in series [1] (Homo sapiens, HAECT1) turned out to be 123%. The Emax in series [2] (Homo sapiens) was 39%.
In turn, `COC(=O)[C@@](C#N)(Cc1ccccn1)[C@H](c1ccccc1OC)c1cccc2ccccc12` (relative stereo) [Example 143, Methyl (2S*,3S*)-2-cyano-3-(2-methoxyphenyl)-3-(1-naphthyl)-2-(pyridin-2-ylmethyl)propanoate] returned a melting point of 194.4 to 196.3 °C. Moreover, in series [1] (Homo sapiens, HAECT1), the Emax was determined as 91% and the IC50 came to 39 nM. The compound also came in with an EC50 in series [2] (Homo sapiens, HAECT1) of 74 nM. In addition, the Emax in series [2] (Homo sapiens) worked out at 38%.
Take `COC(=O)[C@@](C#N)(Cc1ccc(Br)cc1)[C@H](c1ccccc1OC)c1cccc2ccccc12` (relative stereo) [Example 152, Methyl (2S*,3S*)-2-(4-bromobenzyl)-2-cyano-3-(2-methoxyphenyl)-3-(1-naphthyl)propanoate]: the melting point was in the range of 218 to 219 °C. Also, in series [1] (Homo sapiens, HAECT1), the Emax is 130% and the IC50 turned out to be 19 nM. The same compound gave an EC50 in series [2] (Homo sapiens, HAECT1) of 85 nM. Further, the Emax in series [2] (Homo sapiens) turned out to be 14%.
`COC(=O)[C@@](C#N)(Cc1ccc(-c2cccc(C(F)(F)F)c2)cc1)[C@H](c1ccccc1OC)c1cccc2ccccc12` (relative stereo) [Example 153, Methyl (2S*,3S*)-2-cyano-3-(2-methoxyphenyl)-3-(1-naphthyl)-2-{[3′-(trifluoromethyl)-1,1′-biphenyl-4-yl]methyl}propanoate]: the melting point fell in the range of 202 to 204.1 °C. In series [1] (Homo sapiens, HAECT1), the Emax worked out at 150% and the concentration for half-maximal inhibition (IC50) is 149 nM. In addition, the Emax in series [2] (Homo sapiens) worked out at 15%.
As for `COCCOC[C@@](C#N)(C(=O)OC(C)(C)C)[C@@H](c1ccccc1OC)c1cccc2ccccc12` [Example 173, tert-Butyl (RR,SS)-2-cyano-2-[(2-methoxyethoxy)methyl]-3-(2-methoxyphenyl)-3-(1-naphthyl)propanoate], in series [1], the “IL6 luc % Efficacy” value came out at 124% and the IC50 is 72 nM. The “CK % Efficacy” value in series [2] is listed as −13%.
`COc1ccccc1C(c1cccc2ccccc12)C(C#N)(Cc1cccnc1)C(=O)N1CCN(c2ncccn2)CC1` (stereo not drawn) [Example 174, (RR,SS)-3-(2-methoxyphenyl)-3-(1-naphthyl)-2-(pyridin-3-ylmethyl)-2-[(4-pyrimidin-2-ylpiperazin-1-yl)carbonyl]propanenitrile]: in series [1], the “IL6 luc % Efficacy” value worked out at 49% and the IC50 stood at 1820 nM. Moreover, in series [2], the “CK % Efficacy” value was found to be 34%.
`COc1ccccc1[C@@H](c1cccc2ccccc12)[C@@](C#N)(Cc1cccnc1)C(=O)N1CCN(c2cnccn2)CC1` [Example 177, (RR,SS)-3-(2-methoxyphenyl)-3-(1-naphthyl)-2-[(4-pyrazin-2-ylpiperazin-1-yl)carbonyl]-2-(pyridin-3-ylmethyl)propanenitrile]: in series [1], the “IL6 luc % Efficacy” value stood at 91% and the IC50 stood at 1150 nM. Further, the “CK % Efficacy” value in series [2] is given as −32%.
Consider `COc1ccccc1C(c1cccc2ccccc12)C(C#N)(Cc1cccnc1)C(=O)N1CC=C(c2c[nH]c3ccccc23)CC1` (stereo not drawn) [Example 178, (RR,SS)-3-[4-(1H-indol-3-yl)-3,6-dihydropyridin-1(2H)-yl]-2-[(2-methoxyphenyl)(1-naphthyl)methyl]-3-oxo-2-(pyridin-3-ylmethyl)propanenitrile], for which, in series [1], the “IL6 luc % Efficacy” value is listed as 137% and the IC50 was determined as 94 nM. Also, the “CK % Efficacy” value in series [2] is given as −100%.
As to `COc1ccccc1[C@H](c1cccc2ccccc12)[C@@](C)(C#N)C(=O)N1CCC2(CC1)OCCO2` [Example 188], in series [1], the “IL6 luc % Efficacy” value is 107% and the IC50 is 63 nM. Besides, in series [2], the “CK % Efficacy” value is reported as 39%.
Turning to `COC[C@@](C#N)(C(=O)N1CCN(c2ncccn2)CC1)[C@@H](c1ccccc1OC)c1cccc2ccccc12` [Example 200, (RR,SS)-2-(methoxymethyl)-3-(2-methoxyphenyl)-3-(1-naphthyl)-2-[(4-pyrimidin-2-ylpiperazin-1-yl)carbonyl]propanenitrile], in series [1], the “IL6 luc % Efficacy” value was 162% and the IC50 stood at 157 nM. In addition, the “CK % Efficacy” value in series [2] is 13%.
For `COCC(C#N)(C(=O)N1CCN(C2CCCCC2)CC1)C(c1ccccc1OC)c1cccc2ccccc12` (stereo not drawn) [Example 209, (RR,SS)-3-(4-cyclohexylpiperazin-1-yl)-2-(methoxymethyl)-2-[(2-methoxyphenyl)(1-naphthyl)methyl]-3-oxopropanenitrile], in series [1], the “IL6 luc % Efficacy” value worked out at 116% and the concentration for half-maximal inhibition (IC50) is 87 nM. In addition, the “CK % Efficacy” value in series [2] was 2%.
As to `COCC(C#N)(C(=O)N1CCN(c2cnccn2)CC1)C(c1ccccc1OC)c1cccc2ccccc12` (stereo not drawn) [Example 212, (RR,SS)-2-(methoxymethyl)-3-(2-methoxyphenyl)-3-(1-naphthyl)-2-[(4-pyrazin-2-ylpiperazin-1-yl)carbonyl]propanenitrile], in series [1], the “IL6 luc % Efficacy” value stood at 113% and the IC50 amounted to 59 nM. Besides, in series [2], the “CK % Efficacy” value worked out at 22% and the EC50 was found to be 138 nM.
For `COCC(C#N)(C(=O)N1CC=C(c2c[nH]c3ccccc23)CC1)C(c1ccccc1OC)c1cccc2ccccc12` (stereo not drawn) [Example 213, (RR,SS)-3-[4-(1H-indol-3-yl)-3,6-dihydropyridin-1(2H)-yl]-2-(methoxymethyl)-2-[(2-methoxyphenyl)(1-naphthyl)methyl]-3-oxopropanenitrile] the same measures were 103%, 5.6 nM, 26% and 64 nM.
As for `COc1ccccc1C(c1cccc2ccccc12)C(C#N)(COCc1ccccc1)C(=O)N1CCN(C2CCCCC2)CC1` (stereo not drawn) [Example 217, (RR,SS)-2-[(benzyloxy)methyl]-3-(4-cyclohexylpiperazin-1-yl)-2-[(2-methoxyphenyl) (1-naphthyl)methyl]-3-oxopropanenitrile], in series [1], the “IL6 luc % Efficacy” value was 12% and the 50% inhibitory concentration (IC50) amounted to 203 nM. For the same compound, the “CK % Efficacy” value in series [2] is −37%.
For `COc1ccccc1[C@@H](c1cccc2ccccc12)[C@@](C#N)(COCc1ccccc1)C(=O)N1CCN(c2ncccn2)CC1` [Example 218, (RR,SS)-2-[(benzyloxy)methyl]-3-(2-methoxyphenyl)-3-(1-naphthyl)-2-[(4-pyrimidin-2-ylpiperazin-1-yl)carbonyl]propanenitrile], in series [1], the “IL6 luc % Efficacy” value was found to be 101% and the half-maximal inhibitory concentration (IC50) stood at 103 nM. In addition, the “CK % Efficacy” value in series [2] was −12%.
The matching figures for `COc1ccccc1[C@@H](c1cccc2ccccc12)[C@@](C#N)(COCc1ccccc1)C(=O)N1CCN(c2cnccn2)CC1` [Example 220, (RR,SS)-2-[(benzyloxy)methyl]-3-(2-methoxyphenyl)-3-(1-naphthyl)-2-[(4-pyrazin-2-ylpiperazin-1-yl)carbonyl]propanenitrile]: 128%, 344 nM and 6%.
As to `COC[C@@](C#N)(C(=O)N1CCN(C2CCCCC2)CC1)[C@@H](c1ccccc1OC)c1cccc2ccccc12` [Example 222, (2R,3R)-3-(4-cyclohexylpiperazin-1-yl)-2-(methoxymethyl)-2-[(2-methoxyphenyl)(1-naphthyl)methyl]-3-oxopropanenitrile], in series [1], the “IL6 luc % Efficacy” value is 170% and the half-inhibitory concentration (IC50) came to 304 nM. This compound also registered a concentration giving a half-maximal response (EC50) in series [2] of 33 nM.
In the case of `COC[C@](C#N)(C(=O)N1CC=C(c2c[nH]c3ccccc23)CC1)[C@H](c1ccccc1OC)c1cccc2ccccc12` [Example 225], in series [1], the “IL6 luc % Efficacy” value is on record as 83% and the half-maximal inhibitory concentration (IC50) was 1600 nM. The “CK % Efficacy” value in series [2] is recorded as −12%.
Consider `COC[C@@](C#N)(C(=O)N1CC=C(c2c[nH]c3ccccc23)CC1)[C@@H](c1ccccc1OC)c1cccc2ccccc12` [Example 226], for which, in series [1], the “IL6 luc % Efficacy” value is 115% and the IC50 worked out at 220 nM. In addition, in series [2], the “CK % Efficacy” value is reported as 18% and the midpoint of the response, the EC50, lay at 138 nM.

The melting point is the temperature, or range, at which the solid turns liquid. For orientation: IC50 means the midpoint of a concentration-inhibition curve. A word on the EC50: it is the concentration giving half of the maximal effect. A high value points to lower potency in that assay.
